Measured values reported in PubChem BioAssay AID651788 (The Scripps Research Institute Molecular Screening Center, 2012).
Active and inactive are the calls of the source.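 The calls were made as follows: active = IC50 for SRC3 coactivator inhibition, the dose giving half inhibition, at or below 10 µM; inactive = IC50 above 10 µM.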

These compounds were tested against Nuclear receptor coactivator 3 (Homo sapiens) (UniProt Q9Y6Q9) (assay: SRC3 (NCOA3) coactivator inhibitors, late-stage follow-up, cell-based, HEK293, GAL4-SRC3 luciferase, powder samples (AID 651788)). Conditions: HEK293 GAL4-SRC3 luciferase reporter, luminescence.
Nuclear receptor coactivator 3 (Homo sapiens), sequence (Q9Y6Q9 whole entry, looked up, the tested form may be a part): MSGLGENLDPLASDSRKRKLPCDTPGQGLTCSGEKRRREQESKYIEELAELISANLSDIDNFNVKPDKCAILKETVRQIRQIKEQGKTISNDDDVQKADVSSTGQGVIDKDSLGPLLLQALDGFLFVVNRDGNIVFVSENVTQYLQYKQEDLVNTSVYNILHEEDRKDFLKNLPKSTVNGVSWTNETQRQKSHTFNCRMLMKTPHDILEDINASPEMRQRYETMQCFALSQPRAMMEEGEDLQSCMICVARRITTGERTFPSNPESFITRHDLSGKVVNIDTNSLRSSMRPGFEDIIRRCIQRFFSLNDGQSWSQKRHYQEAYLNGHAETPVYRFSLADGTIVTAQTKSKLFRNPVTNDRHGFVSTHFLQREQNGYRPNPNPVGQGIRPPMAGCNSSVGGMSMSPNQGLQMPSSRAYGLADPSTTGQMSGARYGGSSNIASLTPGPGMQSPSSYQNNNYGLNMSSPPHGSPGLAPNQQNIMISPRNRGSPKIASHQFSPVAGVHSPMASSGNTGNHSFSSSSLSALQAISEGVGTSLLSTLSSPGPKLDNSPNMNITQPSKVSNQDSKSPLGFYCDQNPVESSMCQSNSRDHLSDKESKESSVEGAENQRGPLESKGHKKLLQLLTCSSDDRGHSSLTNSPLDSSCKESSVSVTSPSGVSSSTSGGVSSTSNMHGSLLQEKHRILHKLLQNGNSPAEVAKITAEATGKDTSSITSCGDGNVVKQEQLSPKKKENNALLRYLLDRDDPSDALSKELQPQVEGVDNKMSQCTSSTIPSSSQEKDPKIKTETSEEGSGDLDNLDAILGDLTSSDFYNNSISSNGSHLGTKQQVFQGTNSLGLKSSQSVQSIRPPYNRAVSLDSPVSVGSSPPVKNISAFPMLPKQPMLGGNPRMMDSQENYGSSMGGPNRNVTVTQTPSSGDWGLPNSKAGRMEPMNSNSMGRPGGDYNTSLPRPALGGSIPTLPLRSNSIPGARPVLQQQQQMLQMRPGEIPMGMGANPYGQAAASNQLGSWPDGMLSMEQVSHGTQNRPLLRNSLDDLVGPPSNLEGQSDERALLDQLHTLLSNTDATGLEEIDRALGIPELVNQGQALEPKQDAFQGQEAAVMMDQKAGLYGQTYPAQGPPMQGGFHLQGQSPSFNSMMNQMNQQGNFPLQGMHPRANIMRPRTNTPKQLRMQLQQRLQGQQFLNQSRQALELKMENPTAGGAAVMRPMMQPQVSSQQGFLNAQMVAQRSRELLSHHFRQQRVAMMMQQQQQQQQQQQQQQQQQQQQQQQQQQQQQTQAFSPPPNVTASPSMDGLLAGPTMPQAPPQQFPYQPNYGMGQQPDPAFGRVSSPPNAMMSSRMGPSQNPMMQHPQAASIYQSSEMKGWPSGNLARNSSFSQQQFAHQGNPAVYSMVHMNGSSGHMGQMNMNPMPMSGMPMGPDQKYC

IC50	SMILES
inactive	Cc1ccc(OCC(=O)c2cc(C)n(-c3ccccc3)c2C)c([N+](=O)[O-])n1
8.32 µM	O=C(COC(=O)c1ccc[nH]c1=O)Nc1ccc(N2CCCCC2)cc1
> 12 µM (inactive)	CC(C)(C)c1ccc(-c2noc(CCC(=O)Nc3cccnc3)n2)cc1
4.44 µM	CN1C(=O)C2(C(C#N)=C(N)N(c3cc(Cl)cc(Cl)c3)C3=C2C(=O)CC(C)(C)C3)c2ccccc21 (stereo not drawn)
3.1 µM	O=C(Nc1ccccc1Oc1ccccc1)c1cc([N+](=O)[O-])ccc1Cl
4.97 µM	OCCN1CCN(C(=S)c2ccc(-c3ccccc3)cc2)CC1
5.74 µM	CN1C(=O)C2(C(C#N)=C(N)N(c3cc(Cl)cc(Cl)c3)C3=C2C(=O)CCC3)c2ccccc21 (stereo not drawn)
3.96 µM	CCCNC(=O)c1nnsc1S(=O)(=O)c1ccc(Cl)cc1
